Experimental data reported in US4568666A, “Carboxylalkyl peptide derivatives” (G. D. Searle & Co., priority 1984, dated 1986).

Molecular target: T1, Human Rheumatoid Synovial Collagenase (Homo sapiens, UniProt P03956)
T1 construct: from tissue
T1 sequence (P03956 100-469): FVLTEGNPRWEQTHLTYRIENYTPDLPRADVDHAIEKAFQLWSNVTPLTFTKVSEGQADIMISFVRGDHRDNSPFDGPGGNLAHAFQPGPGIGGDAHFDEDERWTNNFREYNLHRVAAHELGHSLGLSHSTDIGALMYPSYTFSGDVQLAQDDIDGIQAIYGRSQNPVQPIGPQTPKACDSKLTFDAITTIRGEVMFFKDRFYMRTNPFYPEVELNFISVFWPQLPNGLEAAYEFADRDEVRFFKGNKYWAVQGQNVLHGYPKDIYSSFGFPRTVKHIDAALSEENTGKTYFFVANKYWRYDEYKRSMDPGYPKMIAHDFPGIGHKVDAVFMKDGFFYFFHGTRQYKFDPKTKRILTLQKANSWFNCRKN
Test: Collagenase inhibition (procedure of Cawston and Barrett, acetyl 14C collagen)
Format: biochemical
Conditions: 37° C., 16 hours, native acetyl 14C collagen, Tris HCl-CaCl2 pH 7.6
Procedure: This was determined following the procedure of Cawston and Barrett, Anal. Biochem., 99, 340-345 (1979) whereby the 1 mM of the inhibitor being tested or dilutions thereof are incubated at 37° C. for 16 hours with native collagen and collagenase (buffered with Tris HCl--CaCl2; pH 7.6). The collagen is acetyl ^14 C collagen. The samples are centrifuged to sediment undigested collagen and an aliquot of the radiactive supernatant removed for assay on a scintillation counter as a measure of hydrolysis. The collagenase activity in the presence of 1 mM inhibitor, or a dilution thereof, is compared to activity in a control devoid of inhibitor and the results reported as that inhibitor concentration effecting 50% inhibition of the collagenase.

| IC50 [µM] | Molecule |
| --- | --- |
| 2.5 | CNC(=O)[C@H](Cc1ccc(OCCCCCC(C)C)cc1)NC(=O)[C@H](CC(C)C)N[C@H](CCNC(=O)OCc1ccccc1)C(=O)O [Example 31, N-[3-N-(Benzyloxycarbonyl)amino-1-(R)-carboxypropyl]-L-leucyl-O-6(methyl)heptyl-L-tyrosine N-methyl amide] |
| 3.1 | CNC(=O)[C@H](Cc1ccc(O)cc1)NC(=O)[C@H](CC(C)C)N[C@H](CCNC(=O)c1ccccc1)C(=O)O [Example 15, N-[3-N-(Benzoyl)amino-1-(R)-carboxy-propyl]-L-leucyl-L-tyrosine N-Methylamide] |
| 1 | COc1ccc(C[C@H](NC(=O)[C@H](CC(C)C)N[C@H](CCNC(=O)OCc2ccccc2)C(=O)O)C(=O)NCCc2ccccc2)cc1 [Example 36, N-[3-N-(Benzyloxycarbonyl)amino-1-(R)-carboxypropyl]-L-leucyl-O-methyl-L-tyrosine N-Phenethylamide] |
| 2.4 | N-[3-N-(Benzyloxycarbonyl)amino-1-(R)-carboxypropyl]-L-leucyl-O-(2'-carboxyethyl-L-leucyl N-Methylamide)-L-tyrosine N-Methylamide [Example 35] |
| 1.2 | CNC(=O)[C@H](Cc1ccc(O)cc1)NC(=O)[C@H](CC(C)C)N[C@H](CCNC(=O)OCc1ccccc1)C(=O)O [Example 25, N-[3-N-(Benzyloxycarbonyl)amino-1-(R)-carboxypropyl]-L-leucyl-L-tyrosine N -Methylamide] |
| 2.1 | CNC(=O)[C@H](Cc1ccc(OC(C)C)cc1)NC(=O)[C@H](CC(C)C)N[C@H](CCNC(=O)OCc1ccccc1)C(=O)O [Example 27, N-[3-N-(Benzyloxycarboxyl)amino-1-(R)-carbonypropyl]-L-leucyl-O-isopropyl-L-tyrosine N-methylamide] |
| 9.5 | CNC(=O)[C@H](Cc1ccc(OC)cc1)NC(=O)[C@H](CC(C)C)N[C@H](CCCNC(=O)OCc1ccccc1)C(=O)O [Example 9, N-[4-N-(Benzyloxycarbonyl)amino-1-(R)-carboxybutyl]-L-leucyl-O-methyl-L-tyrosine N-Methylamide] |
| 0.74 | CNC(=O)[C@H](Cc1ccc(OC2CCCC2)cc1)NC(=O)[C@H](CC(C)C)N[C@H](CCNC(=O)OCc1ccccc1)C(=O)O [Example 33, N-[3-N-(Benzyloxycarbonyl)amino-1-(R)-carboxypropyl]-L-leucyl-O-cyclopentyl-L-tyrosine N-Methylamide] |
| 11 | CNC(=O)[C@H](Cc1ccc(OC)cc1)NC(=O)[C@H](CC(C)C)N[C@H](CCCCNC(=O)OCc1ccccc1)C(=O)O [Example 21, N-[5-N-(Benzyloxycarbonyl)amino-1-(R)-carboxypentyl]-L-leucyl-O-methyl-L-tyrosine N-Methylamide] |
| 51 | CC(C)C[C@H](N[C@H](CCNC(=O)OCc1ccccc1)C(=O)O)C(=O)NCCc1ccccc1 [Example 19, N-[3-N-(Benzyloxycarbonyl)amino-1-(R)-carboxypropyl]-L-leucine N-Phenethylamide] |
| 2.6 | CCCCNC(=O)COc1ccc(C[C@H](NC(=O)[C@H](CC(C)C)N[C@H](CCNC(=O)OCc2ccccc2)C(=O)O)C(=O)NC)cc1 [Example 34, N-[3-N-(Benzyloxycarbonyl)amino-1-(R)-carboxypropyl]-L-leucyl-O-(2-aminobutyl-2-oxo)ethyl-L-tyrosine N-Methylamide] |
| 42 | CNC(=O)[C@H](Cc1ccc(OC)cc1)NC(=O)[C@H](CC(C)C)N[C@H](CCCCNC(=O)[C@@H]1CCCN1C(C)=O)C(=O)O [Example 22, N-[5-N-[N-Acetyl-L-prolyl]amino-1-(R)-carboxypentyl]-L-leucyl-O-methyl-L-tyrosine N-Methylamide] |
| 1.2 | CNC(=O)[C@H](Cc1ccc(OC)cc1)NC(=O)[C@H](CC(C)C)N[C@H](CCNC(=O)OCc1ccc([N+](=O)[O-])cc1)C(=O)O [Example 14, N-[3-N-(p-Nitrobenzyloxycarbonyl)amino-1-(R)-carboxypropyl]-L-leucyl-O-methyl-L-tyrosine N-Methylamide] |
| 42 | CC(C)C[C@H](N[C@H](C)C(=O)O)C(=O)NCCc1ccccc1 [Example 6, N[1-(R)-Carboxyethyl]-L-Leucine N-Phenethylamide] |
| 4.9 | CNC(=O)[C@H](Cc1ccc(OC)cc1)NC(=O)[C@H](CC(C)C)N[C@H](CCNC(=O)c1ccc([N+](=O)[O-])cc1)C(=O)O [Example 16, N-[3-N-(P-Nitrobenzoyl)amino-1-(R)-carboxypropyl]-L-leucyl-O-methyl-L-tyrosine. N-Methylamide] |
| 0.74 | CCCOc1ccc(C[C@H](NC(=O)[C@H](CC(C)C)N[C@H](CCNC(=O)OCc2ccccc2)C(=O)O)C(=O)NC)cc1 [Example 26, N-(3-N-(Benzyloxycarbonyl)amino-1-(R)-carboxypropyl)-L-leucyl-O-propyl-L-tyrosine N-methyl amide] |
| 1.1 | CNC(=O)[C@H](Cc1ccc(OCCC(C)C)cc1)NC(=O)[C@H](CC(C)C)N[C@H](CCNC(=O)OCc1ccccc1)C(=O)O [Example 30, N[3-N-(Benzyloxycarbonyl)amino-1-(R)-carboxypropyl]-L-leucyl-O-3(methyl)butyl-L-tyrosine N-methyl amide] |
| 3.6 | CNC(=O)[C@H](Cc1ccc(OC(C)(C)C)cc1)NC(=O)[C@H](CC(C)C)N[C@H](CCNC(=O)OCc1ccccc1)C(=O)O [Example 28] |
| 0.91 | CNC(=O)[C@H](Cc1ccc(OCc2ccccc2)cc1)NC(=O)[C@H](CC(C)C)N[C@H](CCNC(=O)OCc1ccccc1)C(=O)O [Example 32, N-[3-N-(Benzyloxycarbonyl)amino-1-(R)-carboxypropyl]-L-leucyl-O-benzyl-L-tyrosine N-Methylamide] |
| 91 | CNC(=O)[C@H](Cc1ccc(OC)cc1)NC(=O)[C@H](CC(C)C)N[C@H](CCN)C(=O)O [Example 13, N-[3-Amino-1-(R)-carboxypropyl]-L-leucyl-O-methyl-L-tryosine N-Methylamide] |
| 1.3 | N-[3-(N'-Benzyl)carbamoyl-1-(R)-carboxypropyl]-L-leucyl-O-methyl-L-tyrosineN-Methylamide [Example 18] |
| 0.54 | CCCCCOc1ccc(C[C@H](NC(=O)[C@H](CC(C)C)N[C@H](CCNC(=O)OCc2ccccc2)C(=O)O)C(=O)NC)cc1 [Example 29, N-[3-N-(Benzyloxycarbonyl)amino-1-(R)-carboxypropyl]-L-leucyl-O-pentyl-L-tyrosine N-Methylamide] |
| 19 | CCCCNC(=O)[C@H](C)NC(=O)[C@H](CCCC)N[C@H](C)C(=O)O [Example 24, N-(1-(R)-Carboxyethyl)-S-norleucyl-S-alanine. N-Butylamide] |

| Molecule | IC50 [µM] |
| --- | --- |
| CNC(=O)[C@H](Cc1ccc(OC)cc1)NC(=O)[C@H](CC(C)C)N[C@H](CCSC)C(=O)O [Example 7, N[1-(R)-Carboxy-3-methylthiopropyl]-L-leucyl-O-methyl-L-tyrosine N-methylamide] | 5.5 |
| CNC(=O)[C@H](Cc1ccc(OCc2ccccc2)cc1)NC(=O)[C@H](CC(C)C)N[C@H](C)C(=O)O [Example 5, N[1-(R)-Carboxyethyl]-L-leucyl-O-benzyl-L-tyrosine N-Methylamide] | 1.7 |
